The values below come from US20240325390A1 (Aerovate Therapeutics, Inc., priority 2020, published 2024).

Structures can show the parent of a compound that is named as a salt. Where two headings read alike, the source gives them in different places.

For data set [1] the following is noted: imatinib in plasma, MAD Day 7, mean.
Data set [2] in a line: clinical. As to conditions: human, in vivo.
A short description of data set [3]: clinical. As to conditions: human, plasma; for AUC / AUC(0-t) / Cmax: inhaled or intranasal; for Cmax / concentration at 7 day: imatinib in plasma, mean; for concentration at 7 day: inhaled.

As a reminder, the AUC(0-t) is exposure summed from dosing to a finite time, without extrapolation to infinity. By Cmax is commonly meant the highest concentration seen after dosing. What is called Tmax is the time from dosing to the highest level. In general, AUC refers to concentration integrated over time. High values mean more exposure, low ones less exposure. `Cc1ccc(NC(=O)c2ccc(CN3CCN(C)CC3)cc2)cc1Nc1nccc(-c2cccnc2)n1` [AV-101, imatinib]: the Fluctuation in data set [1] (inhaled 10 mg AV-101 BID) is on record as 78.28%; in data set [1] (inhaled 30 mg AV-101 BID), 70.30%; in data set [1] (inhaled 90 mg AV-101 BID), 67.18%. The AUC(0-t) came out at 9.9 ng·h/mL in the data set “clinical [2]” (inhaled or intranasal, 1 mg); 65.4 ng·h/mL in “clinical [2]” (inhaled or intranasal, 3 mg); 319 ng·h/mL in “clinical [2]” (inhaled or intranasal, 10 mg); 1280 ng·h/mL in the data set “clinical [2]” (inhaled or intranasal, 30 mg); 6670 ng·h/mL in the data set “clinical [2]” (inhaled or intranasal, 90 mg); 182 ng·h/mL in the data set “clinical [3]” (10 mg). Further, the AUC(0-t) in “clinical [3]” (30 mg) turned out to be 673 ng·h/mL; in the data set “clinical [3]” (90 mg) it was 2210 ng·h/mL. Further, the Cmax in the data set “clinical [2]” (inhaled or intranasal, 1 mg) is 1.16 ng/mL; in the data set “clinical [2]” (inhaled or intranasal, 3 mg), 3.81 ng/mL; in “clinical [2]” (inhaled or intranasal, 10 mg), 20.2 ng/mL; in the data set “clinical [2]” (inhaled or intranasal, 30 mg) it was 73.8 ng/mL; in the data set “clinical [2]” (inhaled or intranasal, 90 mg) it was 424 ng/mL; in the data set “clinical [3]” (10 mg, MAD Day 1, inhaled 10 mg AV-101) it was 24.1 ng/mL. In addition, the Cmax was 69.2 ng/mL in the data set “clinical [3]” (10 mg, ss, MAD Day 7, inhaled 10 mg AV-101 BID); 88.7 ng/mL in “clinical [3]” (30 mg, MAD Day 1, inhaled 30 mg AV-101); 215 ng/mL in “clinical [3]” (30 mg, ss, MAD Day 7, inhaled 30 mg AV-101 BID); 262 ng/mL in the data set “clinical [3]” (90 mg, MAD Day 1, inhaled 90 mg AV-101); 890 ng/mL in “clinical [3]” (90 mg, ss, MAD Day 7, inhaled 90 mg AV-101 BID). Further, the Tmax in the data set “clinical [2]” (inhaled or intranasal, 1 mg) came out at 3 h; in the data set “clinical [2]” (inhaled or intranasal, 10 mg), 0.18 h. The AUC was 590 ng·h/mL in the data set “clinical [3]” (10 mg), 1920 ng·h/mL in the data set “clinical [3]” (30 mg) and 7970 ng·h/mL in the data set “clinical [3]” (90 mg). In addition, the concentration at 7 day in the data set “clinical [3]” (10 mg, Cav, MAD Day 7, inhaled 10 mg AV-101 BID) was found to be 49.1 ng/mL; in “clinical [3]” (10 mg, Cmin, ss, MAD Day 7, inhaled 10 mg AV-101 BID), 31.7 ng/mL; in the data set “clinical [3]” (30 mg, Cav, MAD Day 7, inhaled 30 mg AV-101 BID), 160 ng/mL; in “clinical [3]” (30 mg, Cmin, ss, MAD Day 7, inhaled 30 mg AV-101 BID), 118 ng/mL; in “clinical [3]” (90 mg, Cav, MAD Day 7, inhaled 90 mg AV-101 BID), 664 ng/mL; in “clinical [3]” (90 mg, Cmin, ss, MAD Day 7, inhaled 90 mg AV-101 BID) it was 534 ng/mL.

In the case of `Cc1ccc(NC(=O)c2ccc(CN3CCN(C)CC3)cc2)cc1Nc1nccc(-c2cccnc2)n1` [Imatinib, imatinib mesylate, reference compound], in the data set “clinical [2]” (po, 400 mg), the AUC(0-t) came to 32700 ng·h/mL and the Cmax is 1710 ng/mL.
